From ChEMBL document CHEMBL1201862, “PubChem BioAssay data set” (2004)
Activity calls are given as the source filed them.

Tests used:
[1] = biological target: T1, Adenosylmethionine-8-amino-7-oxononanoate aminotransferase (Mycobacterium tuberculosis, UniProt P9WQ81); assay: Mycobacterium tuberculosis BioA enzyme inhibitor Measured in Biochemical System Using Plate Reader - 2163-02_Inhibitor_Dose_CherryPick_Activity.; assay type: functional, Mycobacterium tuberculosis UT205
T1 sequence (P9WQ81 whole entry): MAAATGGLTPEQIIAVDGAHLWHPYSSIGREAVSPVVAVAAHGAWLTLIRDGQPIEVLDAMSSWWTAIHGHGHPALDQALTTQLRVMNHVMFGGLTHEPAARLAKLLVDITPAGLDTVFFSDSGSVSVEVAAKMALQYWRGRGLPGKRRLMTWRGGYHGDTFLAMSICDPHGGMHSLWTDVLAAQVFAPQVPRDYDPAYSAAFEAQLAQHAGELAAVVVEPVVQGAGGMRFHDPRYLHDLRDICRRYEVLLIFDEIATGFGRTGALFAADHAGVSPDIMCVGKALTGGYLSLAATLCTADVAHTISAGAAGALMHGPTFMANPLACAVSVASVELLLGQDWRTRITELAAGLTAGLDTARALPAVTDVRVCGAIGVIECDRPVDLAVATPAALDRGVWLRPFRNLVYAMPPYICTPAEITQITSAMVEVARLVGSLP

[2] = biological target: T2, Corticotropin-releasing factor receptor 2/Corticotropin-releasing factor-binding protein (Homo sapiens, UniProt P24387+Q13324); assay: activators of CRF receptor 2 with binding protein – uHTS hits, confirmation (AID 602473); assay type: functional; conditions: read-out: EC50_Mean
T2 sequence (Q13324 whole entry): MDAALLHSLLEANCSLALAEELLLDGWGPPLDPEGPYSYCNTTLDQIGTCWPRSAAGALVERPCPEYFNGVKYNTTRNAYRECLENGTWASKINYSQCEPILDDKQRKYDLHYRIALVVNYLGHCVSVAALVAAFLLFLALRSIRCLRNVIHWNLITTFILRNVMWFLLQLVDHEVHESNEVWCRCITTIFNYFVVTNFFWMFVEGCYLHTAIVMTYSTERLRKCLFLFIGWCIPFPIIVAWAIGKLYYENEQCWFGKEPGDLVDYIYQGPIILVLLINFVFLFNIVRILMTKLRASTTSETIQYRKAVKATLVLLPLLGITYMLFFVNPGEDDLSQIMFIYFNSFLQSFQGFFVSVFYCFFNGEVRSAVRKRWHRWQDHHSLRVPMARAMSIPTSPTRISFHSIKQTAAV
T2 sequence (P24387 whole entry): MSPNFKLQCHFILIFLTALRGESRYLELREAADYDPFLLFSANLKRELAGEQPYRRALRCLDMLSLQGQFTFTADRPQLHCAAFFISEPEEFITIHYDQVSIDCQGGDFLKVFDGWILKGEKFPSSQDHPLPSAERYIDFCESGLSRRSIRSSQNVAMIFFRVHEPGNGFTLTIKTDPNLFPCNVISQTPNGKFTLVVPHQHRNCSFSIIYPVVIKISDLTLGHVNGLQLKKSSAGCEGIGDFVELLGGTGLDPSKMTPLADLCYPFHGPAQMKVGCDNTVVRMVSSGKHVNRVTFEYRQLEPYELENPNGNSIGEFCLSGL

[3] = biological target: T2, Corticotropin-releasing factor receptor 2/Corticotropin-releasing factor-binding protein; assay: Dose Response confirmation of uHTS hits for small molecule antagonists of the CRF-binding protein and CRF-R2 receptor complex.; assay type: functional; conditions: read-out: IC50_Mean
[4] = blockers of CRF-binding protein–CRF-R2 complex – cell-based, uHTS hits, 384-well, dose response (AID 651639); assay type: functional, Homo sapiens; conditions: read-out: IC50_Mean
[5] = biological target: Dual specificity tyrosine-phosphorylation-regulated kinase 1A (Rattus norvegicus, UniProt Q63470); assay type: biochemical, Homo sapiens
HT-1080 = assay: HT1080 cell viability loss – fluorescence readout (AID 620); assay type: functional, cell-based; conditions: Homo sapiens
[6] = biological target: T3, Luciferin 4-monooxygenase (Photinus pyralis, UniProt P08659); assay: Counter Screen for Luciferase-based Assay Positives. [Related pubchem assays: 620, 618, 411 ]
[7] = NIH3T3 cell viability loss – ATP luminescence, mouse fibroblasts, counter-screen, dose response (AID 2010); assay type: functional, cell-based;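 further: cells exposed to compound for about 90 hours before reading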
[8] = Trypanosoma cruzi growth suppression in host cells – NIH3T3 host cells, beta-gal luminescence, confirmation (AID 2044); assay type: functional, cell-based;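 further: intracellular parasites grown in NIH/3T3 mouse fibroblasts as host cells; luminescent beta-galactosidase reporter signal from transgenic T. cruzi replicating inside host cells; inhibitors lower the luminescence signal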
HeLa = assay: ATP-based viability loss in HeLa cells – cell-based, CellTiter-Glo luminescence, cherry-pick samples, cytotoxicity control for MITF activator project, dose response (AID 540259); assay type: functional; conditions: Homo sapiens
Vero = assay: cells; assay type: functional, cell-based; conditions: Chlorocebus sabaeus
Leucine aminopeptidase = biological target: T4, Leucine aminopeptidase (Plasmodium falciparum 3D7, UniProt Q8IL11); assay: P. falciparum M17LAP inhibitors, primary screen, biochemical, fluorogenic H-Leu-NHMec substrate, 1536-well (AID 1619); assay type: functional
T4 sequence (Q8IL11 whole entry): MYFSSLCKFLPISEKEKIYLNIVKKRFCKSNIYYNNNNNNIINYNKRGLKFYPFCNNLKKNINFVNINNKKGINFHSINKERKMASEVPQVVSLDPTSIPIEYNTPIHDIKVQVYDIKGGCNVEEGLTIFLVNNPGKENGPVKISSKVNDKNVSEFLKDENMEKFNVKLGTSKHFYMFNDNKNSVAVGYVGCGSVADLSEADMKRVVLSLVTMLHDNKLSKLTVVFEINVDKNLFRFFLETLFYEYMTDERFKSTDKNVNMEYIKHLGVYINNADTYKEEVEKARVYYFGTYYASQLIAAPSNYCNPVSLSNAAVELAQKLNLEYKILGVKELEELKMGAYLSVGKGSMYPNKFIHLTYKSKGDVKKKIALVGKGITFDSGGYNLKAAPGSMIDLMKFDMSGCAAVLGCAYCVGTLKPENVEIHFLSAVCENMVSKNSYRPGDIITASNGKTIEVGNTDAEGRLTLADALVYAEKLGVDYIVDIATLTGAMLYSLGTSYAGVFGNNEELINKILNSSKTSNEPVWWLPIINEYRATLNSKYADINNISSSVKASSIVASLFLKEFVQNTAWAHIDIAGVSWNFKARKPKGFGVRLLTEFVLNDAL

[9] = THP-1 cell cytotoxicity, dose response, cytotoxicity control for non-replicating M. tuberculosis project (AID 489025); assay type: functional
Paired box protein Pax-8 = Paired box protein Pax-8 (Homo sapiens, UniProt Q06710); assay: PAX8 transcriptional activity inhibition in RMG-I – RMG-I cells, luciferase, cherry-pick, dose response (AID 687027); assay type: functional, cell-based;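 further: luciferase reporter driven by Pax8 target thyroperoxidase promoter measured by SteadyGlo luminescence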
[10] = HepG2 cell cytotoxicity, dose response, cytotoxicity control for non-replicating M. tuberculosis project (AID 489018); assay type: functional; conditions: Mycobacterium tuberculosis
[11] = NIH-3T3 fibroblast cytotoxicity, dose response, cytotoxicity control, cell-based, fluorescence, Alamar Blue, secondary assay (AID 2327); assay type: functional;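 further: NIH-3T3 mouse fibroblasts cultured with fluconazole at 8 µg/mL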
H4 = assay: Luminescence Cell-Based Dose Response HTS to Identify Activators of 5'UTR Stem-Loop Driven Prion Protein mRNA Translation in H4 Neuroglioblastoma Cells. [Related pubchem assays: 1829 (Project Summary), 1814 (Primary HTS)]; assay type: functional; conditions: Homo sapiens
[12] = biological target: FAD-linked sulfhydryl oxidase ALR (Homo sapiens, UniProt P55789); assay: ALR-catalysed DTT oxidation blockers – biochemical, H2O2 detection, luminescence, cherry-pick, dose response (AID 493248)
cells [13] = assay type: functional, cell-based
cells [14] = assay type: functional, cell-based; remark: listed apart in the source
[15] = biological target: T5, Rac GTPase-activating protein 1 (Homo sapiens, UniProt Q9H0H5); assay: blockers of MgcRacGAP-driven Rac1 GTP hydrolysis – biochemical, ADP Hunter fluorescence, primary and confirmatory, confirmation (AID 624330); assay type: functional
T5 sequence (Q9H0H5 whole entry): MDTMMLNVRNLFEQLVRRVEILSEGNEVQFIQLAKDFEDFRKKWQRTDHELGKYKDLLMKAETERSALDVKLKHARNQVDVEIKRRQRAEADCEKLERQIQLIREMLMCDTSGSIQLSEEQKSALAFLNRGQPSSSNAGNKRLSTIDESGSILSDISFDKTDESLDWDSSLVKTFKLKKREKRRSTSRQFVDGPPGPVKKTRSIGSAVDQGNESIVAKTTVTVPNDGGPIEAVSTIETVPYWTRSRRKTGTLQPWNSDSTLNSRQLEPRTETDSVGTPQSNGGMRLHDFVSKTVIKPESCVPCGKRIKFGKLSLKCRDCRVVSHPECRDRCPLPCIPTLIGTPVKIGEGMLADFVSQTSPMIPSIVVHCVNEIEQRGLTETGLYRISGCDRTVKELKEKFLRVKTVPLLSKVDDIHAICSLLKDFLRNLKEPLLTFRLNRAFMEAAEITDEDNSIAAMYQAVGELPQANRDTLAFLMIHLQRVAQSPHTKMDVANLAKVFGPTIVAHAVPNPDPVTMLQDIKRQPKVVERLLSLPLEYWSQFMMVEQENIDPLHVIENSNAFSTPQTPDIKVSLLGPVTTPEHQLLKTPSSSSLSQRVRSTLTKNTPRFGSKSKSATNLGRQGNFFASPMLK

[16] = Luminescence Cell-Based Dose Confirmation HTS to Identify Inhibitors of Platelet Dense Granule Release. [Related pubchem assays: 1663 (Primary HTS), 1678 (Summary of Project)]; assay type: functional
[17] = blockade of melanocortin 4 receptor signaling – cell-based, plate reader, cherry pick, counter-screen for LGR2 antagonist project, dose response (AID 743444); assay type: functional;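 further: transfected HEK 293 cells stimulated with alpha-MSH peptide; potency of inhibitors of the alpha-MSH evoked signal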
[18] = toxicity toward HepG2 liver cells – cell-based, plate reader, cherry-pick, antagonist series, cytotoxicity control, dose response (AID 743416); assay type: functional
[19] = biological target: T3, Luciferin 4-monooxygenase; assay: inhibition of purified Photinus pyralis luciferase – biochemical, luminescence, dose response (AID 1891)
[20] = A549 cell cytotoxicity, dose response, cytotoxicity control, plate reader, cherry-pick, antagonist series (AID 743412); assay type: functional, cell-based
[21] = blockers of bursicon-stimulated LGR2 cAMP reporter – cell-based, HEK293, CRE-luciferase reporter, cherry pick, set 2, dose response (AID 743343); assay type: functional;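 further: transfected cells were stimulated with diluted bursicon conditioned medium after compound addition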

T3 sequence (P08659 whole entry): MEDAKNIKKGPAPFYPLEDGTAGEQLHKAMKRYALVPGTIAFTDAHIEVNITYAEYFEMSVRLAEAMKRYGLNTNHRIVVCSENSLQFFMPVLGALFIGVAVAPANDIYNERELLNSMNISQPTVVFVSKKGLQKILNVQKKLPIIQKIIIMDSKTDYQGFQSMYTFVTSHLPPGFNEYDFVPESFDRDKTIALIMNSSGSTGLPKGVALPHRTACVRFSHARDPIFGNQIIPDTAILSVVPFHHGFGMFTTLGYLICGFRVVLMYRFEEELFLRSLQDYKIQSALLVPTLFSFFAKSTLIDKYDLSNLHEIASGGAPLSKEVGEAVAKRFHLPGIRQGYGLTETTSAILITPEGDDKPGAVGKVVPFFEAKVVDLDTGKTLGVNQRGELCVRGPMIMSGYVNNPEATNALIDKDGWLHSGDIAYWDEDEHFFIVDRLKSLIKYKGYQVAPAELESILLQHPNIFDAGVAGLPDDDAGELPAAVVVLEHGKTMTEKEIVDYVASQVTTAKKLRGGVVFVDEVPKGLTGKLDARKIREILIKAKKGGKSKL
FAD-linked sulfhydryl oxidase ALR, sequence (P55789 whole entry): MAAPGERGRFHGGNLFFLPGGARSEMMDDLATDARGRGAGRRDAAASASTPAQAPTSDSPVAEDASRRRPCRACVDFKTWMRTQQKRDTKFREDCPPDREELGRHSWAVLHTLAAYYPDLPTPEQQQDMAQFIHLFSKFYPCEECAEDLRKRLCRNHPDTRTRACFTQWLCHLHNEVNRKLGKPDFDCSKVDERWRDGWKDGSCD
Paired box protein Pax-8, sequence (Q06710 whole entry): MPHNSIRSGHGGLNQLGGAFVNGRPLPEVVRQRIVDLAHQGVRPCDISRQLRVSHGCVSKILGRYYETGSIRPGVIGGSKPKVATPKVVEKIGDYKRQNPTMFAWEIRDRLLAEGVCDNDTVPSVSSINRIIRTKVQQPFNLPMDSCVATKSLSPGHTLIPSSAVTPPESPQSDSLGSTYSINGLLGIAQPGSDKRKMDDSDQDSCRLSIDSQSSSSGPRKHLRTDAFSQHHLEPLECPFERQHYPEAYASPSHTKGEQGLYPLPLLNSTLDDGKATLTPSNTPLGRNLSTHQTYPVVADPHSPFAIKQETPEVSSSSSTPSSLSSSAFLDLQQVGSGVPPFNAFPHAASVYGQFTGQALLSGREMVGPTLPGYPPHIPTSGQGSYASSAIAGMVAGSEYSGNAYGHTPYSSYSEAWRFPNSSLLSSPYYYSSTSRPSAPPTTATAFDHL

CC(=O)c1ccc(NC(=O)C2CC(=O)N(Cc3ccccc3)C2)cc1 (stereo not given)
AC50 [1]: 5.19 µM (active)

COc1ccc(C(=O)NC(Oc2ccccc2)C(Cl)(Cl)Cl)cc1 (stereo not given)
EC50 [2]: > 53 µM (inactive)
IC50 [3]: 5.81 µM (active)
IC50 [4]: 14.5 µM (active)

N#C/C(=C/c1ccc(O)c([N+](=O)[O-])c1)C(=O)Nc1ccccc1
AC50 [5]: 1.11 µM (active)

Cc1ccc(C(=O)Nc2nc3c(s2)CCCC3)o1
EC50 (HT-1080): > 50 µM (not active)
EC50 [6]: > 100 µM (not active)

Cc1ccc(NCC(=O)c2ccc(C)cc2)cc1
EC50 [7]: > 60 µM (not active)
EC50 [8]: 4.53 µM (active)
AC50 (HeLa): 103 µM (active)

Cc1c(C(N)=O)sc(N)c1C(=O)OC(C)C
AC50 [1]: 3.06 µM (active)

CCN(CC)CCCNC(=O)c1ccc2c(Cl)c3c(nc2c1)CCCC3
IC50 (Vero): 22.6 µM (active)

O=C(O)COc1ccc(/C=C/c2ccc3cccc([N+](=O)[O-])c3n2)cc1
AC50 [5]: 6.6 µM (active)
IC50 (Leucine aminopeptidase): 23.2 µM (active)

CCOC(=O)Nc1ccc2c(c1)N(C(=O)CCCl)c1ccccc1[S@]2=O
CC50 [9]: 24.7 µM (active)
AC50 (Paired box protein Pax-8): 4.57 µM (active)
CC50 [10]: 18.9 µM (active)

O=C(O)c1cnc(-c2ccccc2)nc1Sc1ccc(Cl)cc1
EC50 [2]: > 53 µM (inactive)
EC50 [11]: 98.3 µM (inconclusive)
IC50 [3]: 16.8 µM (active)
IC50 [4]: > 20 µM (inactive)

O=C(Nc1nc2ccccc2[nH]1)c1ccccc1
EC50 (HT-1080): > 50 µM (not active)
EC50 [6]: < 0.2 µM (active)

CC(=O)Nc1cccc(-c2nc3ccc(NC(C)=O)cc3s2)c1
AC50 (HeLa): 59.3 µM (active)

CC(C)(C)c1cc(NC(=O)Nc2ccccc2)no1
AC50 (HeLa): > 350 µM (inactive)
EC50 (H4): > 120 µM (not active)

C/C(=N\OCc1ccc(C#N)cc1)c1ccc(S(=O)(=O)N(C)C)cc1
AC50 (HeLa): 147 µM (active)

Cc1ccc2[nH]c(-c3cccc(N)c3)nc2c1
EC50 (HT-1080): 20.6 µM (active)
EC50 [6]: 0.49 µM (active)
AC50 [12]: 0.838 µM (active)

COc1cccc(CNC(=O)c2ccc(NC(=O)C3=CSCCO3)cc2)c1
AC50 [1]: 3.61 µM (active)

CC(C)CC(NC(=O)c1ccccc1NC(=O)c1ccccc1)C(=O)O (stereo not given)
EC50 (cells [13]): > 350 µM (not active)
EC50 (cells [14]): > 350 µM (not active)

C/C=C/c1ccc2c(c1)O[C@@H](CN(C)C(=O)c1ccc3c(c1)OCO3)[C@@H](C)CN([C@@H](C)CO)S2(=O)=O
AC50 [1]: 5.33 µM (active)

COc1ccc(C2=NN(c3ccccc3)C(c3ccc(OC)c(OC)c3)C2)cc1 (stereo not given)
AC50 (HeLa): 52 µM (active)

O=c1c2c(O)cc(O)cc2oc2ccc(O)c(O[C@@H]3O[C@H](CO)[C@@H](O)[C@H](O)[C@H]3O[C@H]3O[C@H](CO)[C@@H](O)[C@H](O)[C@H]3O)c12
AC50 [5]: 3.69 µM (active)

COc1ccc(C(=O)NNC2=C(C(=O)C(F)(F)F)CCC2)cc1
CC50 [9]: 18.1 µM (active)
CC50 [10]: > 20 µM (active)

O=C(Nc1ccc(O)cc1)c1cccc(Oc2ccc([N+](=O)[O-])cc2)c1
EC50 [2]: > 53 µM (inactive)
IC50 [3]: 25.9 µM (active)
IC50 [15]: 41.8 µM (active)
IC50 [4]: > 20 µM (inactive)

CCCc1ccc(-c2ccc(F)c(N)c2)nc1
EC50 [16]: 6.17 µM (active)
AC50 [17]: 4.06 µM (active)
AC50 [18]: > 52 µM (inactive)
EC50 [19]: 6.33 µM (active)
EC50 (HT-1080): > 50 µM (not active)
EC50 [6]: 1.58 µM (active)
AC50 [20]: > 52 µM (inactive)
AC50 [21]: 4.32 µM (active)
